Data: patent publication US8859574B2 (IRM LLC, priority 2008, dated 2014)

Target: T1, IGF-1R Ba/F3 (Homo sapiens, UniProt P08069)
T1 construct: fused on or other part: TEL- (or BCR-) IGF-1R in Ba/F3: the kinase part holds the site
Assay: Ba/F3 Cell Viability Inhibition Assay (IGF-1R Ba/F3)
Type: cell-based, murine
Conditions: Tel-TK transformed Ba/F3 cells, 48 hours, Britelite luminescence
Procedure, shortened: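 IL-3-independent murine Ba/F3 cells transformed with a TEL/BCR-fused IGF-1R kinase were seeded at 3750 cells/well and exposed to serially diluted compound for 48 h at 37 °C. Viability was read by Britelite luminescence. IC50 is the concentration giving 50% of DMSO-control viability, from a logistic fit.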

T1 sequence (P08069 999-1274 limits assumed): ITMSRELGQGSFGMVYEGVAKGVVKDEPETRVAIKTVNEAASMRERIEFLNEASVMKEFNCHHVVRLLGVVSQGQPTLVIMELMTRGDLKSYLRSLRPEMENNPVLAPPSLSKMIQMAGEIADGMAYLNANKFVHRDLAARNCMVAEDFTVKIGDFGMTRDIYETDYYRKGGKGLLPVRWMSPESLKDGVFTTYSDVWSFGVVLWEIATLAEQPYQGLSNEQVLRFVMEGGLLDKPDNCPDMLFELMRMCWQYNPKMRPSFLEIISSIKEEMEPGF

Compound | IC50 [nM]
Cc1cc(Nc2nc(Nc3cc(C)c(C4CCNCC4)cc3C)ncc2C(F)(F)F)n[nH]1 [Compound 257, N^2-(2,5-dimethyl-4-(piperidin-4-yl)phenyl)-N^4-(5-methyl-1H-pyrazol-3-yl)-5-(trifluoromethyl)pyrimidine-2,4-diamine] | 64
Cc1cc(Nc2nc(Nc3cc(C)c(C4CCN(S(=O)(=O)CCCN5CCC5)CC4)cc3C)ncc2Cl)n[nH]1 [Compound 195, N2-(4-(1-(3-(azetidin-1-yl)propylsulfonyl)piperidin-4-yl)-2,5-dimethylphenyl)-5-chloro-N4-(5-methyl-1H-pyrazol-3-yl)pyrimidine-2,4-diamine] | 27
Cc1cc(Nc2nc(Nc3cc(C4CCN(CCC(F)(F)F)CC4)c(F)cc3C)ncc2Cl)n[nH]1 [Compound 28, 5-chloro-N2-(4-fluoro-2-methyl-5-(1-(3,3,3-trifluoropropyl)piperidin-4-yl)phenyl)-N4-(5-methyl-1H-pyrazol-3-yl)pyrimidine-2,4-diamine] | 5460
CNC(=O)[C@H](C)N1CCC(c2cc(C)c(Nc3ncc(Cl)c(Nc4cc(C)[nH]n4)n3)cc2C)CC1 [Compound 168, (S)-2-(4-(4-(5-chloro-4-(5-methyl-1H-pyrazol-3-ylamino)pyrimidin-2-ylamino)-2,5-dimethylphenyl)piperidin-1-yl)-N-methylpropanamide] | 10
Cc1cc(Nc2nc(Nc3cc(C)c(C4CCN(Cc5nc(C(C)C)no5)CC4)cc3F)ncc2Cl)n[nH]1 [Compound 259, 5-Chloro-N^2-(2-fluoro-4-(1-((3-isopropyl-1,2,4-oxadiazol-5-yl)methyl)piperidin-4-yl)-5-methylphenyl)-N-(5-methyl-1H-pyrazol-3-yl)pyrimidine-2,4-diamine] | 64
CC(=O)N1CCC(c2cc(C)c(Nc3ncc(Cl)c(Nc4cc(C)[nH]n4)n3)cc2C)CC1 [Compound 110, 1-(4-(4-(5-chloro-4-(5-methyl-1H-pyrazol-3-ylamino)pyrimidin-2-ylamino)-2,5-dimethylphenyl)piperidin-1-yl)ethanone] | 13
Cc1cc(C2CCNCC2)c(C)cc1Nc1ncc(Cl)c(Nc2cc(C3CC3)[nH]n2)n1 [Compound 18, 5-chloro-N4-(5-cyclopropyl-1H-pyrazol-3-yl)-N2-(2,5-dimethyl-4-(piperidin-4-yl)phenyl)pyrimidine-2,4-diamine] | 95
Cc1cc(Nc2nc(Nc3cc(C)c(C4CCN([C@@H]5CCN(S(C)(=O)=O)C5)CC4)cc3F)ncc2Cl)n[nH]1 [Compound 312, (R)-5-chloro-N2-(2-fluoro-5-methyl-4-(1-(1-(methylsulfonyl)pyrrolidin-3-yl)piperidin-4-yl)phenyl)-N4-(5-methyl-1H-pyrazol-3-yl)pyrimidine-2,4-diamine] | 25
Cc1cc(Nc2nc(Nc3cc(C)c(C4CCN(C5CCSCC5)CC4)cc3C)ncc2Cl)n[nH]1 [Compound 174, 5-chloro-N2-(2,5-dimethyl-4-(1-(tetrahydro-2H-thiopyran-4-yl)piperidin-4-yl)phenyl)-N4-(5-methyl-1H-pyrazol-3-yl)pyrimidine-2,4-diamine] | 8
Cc1cc(C2CCN(C(=O)C3(N)CC3)CC2)c(C)cc1Nc1ncc(Cl)c(Nc2cc(C3CC3)[nH]n2)n1 [Compound 188, (1-aminocyclopropyl)(4-(4-(5-chloro-4-(5-cyclopropyl-1H-pyrazol-3-ylamino)pyrimidin-2-ylamino)-2,5-dimethylphenyl)piperidin-1-yl)methanone] | 19
Cc1cc(Nc2nc(Nc3cc(C)c(C4CCN(CCS(C)(=O)=O)CC4)cc3F)ncc2Cl)n[nH]1 [Compound 55, 5-Chloro-N2-(2-fluoro-5-methyl-4-(1-(2-(methylsulfonyl)ethyl)piperidin-4-yl)phenyl)-N4-(5-methyl-1H-pyrazol-3-yl)pyrimidine-2,4-diamine] | 24
CCN1CCC(c2cc(C)c(Nc3ncc(Cl)c(Nc4cc(C5CC5)[nH]n4)n3)cc2C)CC1 [Compound 205, 5-chloro-N4-(5-cyclopropyl-1H-pyrazol-3-yl)-N2-(4-(1-ethylpiperidin-4-yl)-2,5-dimethylphenyl)pyrimidine-2,4-diamine] | 19
